Laboratory results as given in patent US5444151A, “Platelet derived growth factor antagonists” (Ludwig Institute for Cancer Research, priority 1992, dated 1995).
Entries after “also recorded” stand apart in the source; their conditions may differ. Numbered stars: 1 amine (or outer) side, 2 acyl side, 3 side chain; on linkers, the order of the positions; unused ones are H or OH. Square brackets hold non-standard residues; d marks the D form. Peptide text beside a SMILES is read from it. X1 = CSc1ccc(-c2[nH]c3ccccc3c2C[C@H](N[*:1])C(=O)[*:2])cc1

Experiments:
[1] = test system: human foreskin fibroblast cells; experiment: Inhibition of 125I-ligand internalization and degradation (TCA non-precipitatable radioactivity); format: cell-based; settings: four hours at 37° C.
Protocol: To do this, confluent human foreskin fibroblast cells in 12 well dishes were washed once with 1.0 ml of Ham's F-12 medium, supplemented with 1 mg/ml BSA. As described supra, those cells to be tested later for ^125 I-PDGF-BB degradation were preincubated with PDGF-AA to down regulate α receptors. […] The mixtures were incubated for four hours at 37° C., the incubation medium was removed, and then precipitated with trichloroacetic acid at 10% final concentration. The amount of trichloroacetic acid non-precipitatable radioactivity in cell culture medium was taken as an estimate of ligand degradation--i.e., it represents ligand that had been internalized, degraded and released into the medium in the form of free ^125 I, ^[…] or low molecular weight fragments. This parameter was defined after four hours of incubation at 37° C.

[2] = test system: human foreskin fibroblasts; experiment: Ligand stimulated [3H]thymidine incorporation; format: cell-based
Text: The possible role of peptide 16T as an antagonist for PDGF activity in vivo was investigated. Following the methodology of Betsholtz et al., J. Cell Physiol 118: 203-210 (1984), the disclosure of which is incorporated by reference, [^3 H] thymidine incorporation by human fibroblasts in the presence of various peptides was studied.

PDGF receptors = experiment: PDGF-BB induced receptor dimerization and autophosphorylation in intact cells; format: cell-based, human; settings: PDGF-BB 300 ng/ml, intact fibroblasts
Protocol: (§1) Confluent human foreskin fibroblast cells were used (25 cm^2 dishes of cultures). The cells were washed twice with binding buffer, as described supra, with 1 mg/ml BSA added thereto. This was followed by 90 minutes of incubation with one of synthetic peptides 16, […], 20 and […] on ice. […] A dimerization assay was then carried out, basically following Eriksson et al., Growth Factors 6: 1-14 (1992). Essentially, receptors were cross linked for 20 minutes at room temperature in 1 mM BS^3 (Bis(sulfosuccinimidyl)suberate) in lysis buffer (0.5% Triton X-100, 0.5% deoxycholate, […], pH 7.4, 150 mM NaCl, 10 mM EDTA, 1 mM PMSF (phenylmethylsulfonyl fluoride), 1% Trasylol (aprotinin), 100 μM ortovandat, a phosphatase inhibitor). Cross linking was quenched by adding 70 mM methylammonium chloride for 10 minutes. Samples were then subjected to SDS gel electrophoresis in 4% slab gels, followed by electroblotting on to nitrocellulose membranes. The blocked membranes were incubated for two hours with affinity purified phosphotyrosine antibodies (Ek et al., J. Biol. Chem. 259: 1145-11152 (1984)), followed by three washes. Blots were then incubated for 45 minutes with peroxidase conjugated, affinity purified swine antirabbit IgG immunoglobulin. After an additional three washes, complexes were visualized using the ECL developing system.

PDGF-β receptor [3] = target: T1, PDGF-β receptor (Homo sapiens, UniProt P09619); experiment: Competition with 125I-PDGF-BB for binding to AG1518 fibroblasts (α receptor down regulated by PDGF-AA preincubation); settings: AG1518 cells, competing activity
T1 construct: cultures of human foreskin fibroblast cell line AG1518; endogenous in cells; host or cells: AG1518 human foreskin fibroblasts (Human Mutant Cell Repository)
T1 sequence (P09619 33-1106): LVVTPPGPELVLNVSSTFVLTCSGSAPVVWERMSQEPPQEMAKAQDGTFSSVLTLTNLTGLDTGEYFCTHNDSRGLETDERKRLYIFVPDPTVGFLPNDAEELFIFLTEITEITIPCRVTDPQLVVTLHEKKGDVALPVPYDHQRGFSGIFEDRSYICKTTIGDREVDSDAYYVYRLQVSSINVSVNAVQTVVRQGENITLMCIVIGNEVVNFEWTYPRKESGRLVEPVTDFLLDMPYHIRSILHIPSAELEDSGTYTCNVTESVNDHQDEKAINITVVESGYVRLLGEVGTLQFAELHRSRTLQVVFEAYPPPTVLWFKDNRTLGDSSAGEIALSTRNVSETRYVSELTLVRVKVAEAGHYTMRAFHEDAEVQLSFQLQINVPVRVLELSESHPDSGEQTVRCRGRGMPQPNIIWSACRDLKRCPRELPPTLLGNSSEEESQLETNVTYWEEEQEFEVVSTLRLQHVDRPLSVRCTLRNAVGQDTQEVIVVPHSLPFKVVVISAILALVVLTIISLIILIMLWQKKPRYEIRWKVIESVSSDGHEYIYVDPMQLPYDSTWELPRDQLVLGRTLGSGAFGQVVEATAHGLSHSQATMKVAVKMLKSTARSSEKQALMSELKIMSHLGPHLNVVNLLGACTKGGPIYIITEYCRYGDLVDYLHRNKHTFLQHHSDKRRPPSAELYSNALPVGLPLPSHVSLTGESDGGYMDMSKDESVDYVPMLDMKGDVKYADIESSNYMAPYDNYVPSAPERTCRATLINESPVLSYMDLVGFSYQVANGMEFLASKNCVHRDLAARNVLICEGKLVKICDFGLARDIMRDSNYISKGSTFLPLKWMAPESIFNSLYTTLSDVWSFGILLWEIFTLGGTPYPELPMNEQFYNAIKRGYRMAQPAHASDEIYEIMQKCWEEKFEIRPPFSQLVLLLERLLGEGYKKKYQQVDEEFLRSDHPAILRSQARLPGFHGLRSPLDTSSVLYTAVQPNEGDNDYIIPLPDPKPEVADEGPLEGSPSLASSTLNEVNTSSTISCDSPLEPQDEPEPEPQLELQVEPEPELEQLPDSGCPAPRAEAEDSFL
Protocol: (§2) In order to test for receptor binding, cultures of human foreskin fibroblast cell line AG1518 (obtained from the Human Mutant Cell Repository), were grown to confluence in Ham's F-12 medium containing 10% newborn calf serum. Those cells which were to be used in analysis of PDGF-β receptor binding were preincubated for 60 minutes at 37° C. in 0.5 ml/well of Ham's F-12 medium, supplemented with 1 mg/ml of bovine serum albumin (BSA), and 50 ng/ml of PDGF-AA. This combination down regulates PDGF-α receptor, as per Claesson-Welsh et al., J. Biol. Chem. 264: 1742-1747 (1989).
(§3) Cells were prepared for receptor binding analyses by washing with ice cold binding buffer (phosphate buffered saline with 0.9 mM CaCl2, 0.49 mM MgSO4 and 1 mg/ml BSA). The cells were then incubated on ice for 90 minutes with different concentrations (0-100 ug/ml) of synthetic peptides (listed in Table 1, infra), in 0.5 ml of binding buffer per well. […] The labelled ligand was added and then incubated for 60 minutes at 0° C. after which the cells were washed five times with ice cold binding buffer. The washed cells were then lysed for 60 minutes at room temperature in a lysis buffer (1% Triton X-100, 10% glycerol, 20 mM Tris-HCl, pH 7.5). Solubilized radioactivity was determined in a gamma counter. Competing activities of synthetic peptides were compared to standard curves, using unlabelled ligand.
In Table 2, "+++" means <30 μM; "++" from 30-60 μM; "+" 60-150 μM; and "-", >150 μM.

PDGF-α receptor = target: T2, PDGF-α receptor (Homo sapiens, UniProt P16234); experiment: Competition with 125I-PDGF-AA for binding to AG1518 fibroblasts
T2 construct: cultures of human foreskin fibroblast cell line AG1518; endogenous in cells; host or cells: AG1518 human foreskin fibroblasts
T2 sequence (P16234 24-1089): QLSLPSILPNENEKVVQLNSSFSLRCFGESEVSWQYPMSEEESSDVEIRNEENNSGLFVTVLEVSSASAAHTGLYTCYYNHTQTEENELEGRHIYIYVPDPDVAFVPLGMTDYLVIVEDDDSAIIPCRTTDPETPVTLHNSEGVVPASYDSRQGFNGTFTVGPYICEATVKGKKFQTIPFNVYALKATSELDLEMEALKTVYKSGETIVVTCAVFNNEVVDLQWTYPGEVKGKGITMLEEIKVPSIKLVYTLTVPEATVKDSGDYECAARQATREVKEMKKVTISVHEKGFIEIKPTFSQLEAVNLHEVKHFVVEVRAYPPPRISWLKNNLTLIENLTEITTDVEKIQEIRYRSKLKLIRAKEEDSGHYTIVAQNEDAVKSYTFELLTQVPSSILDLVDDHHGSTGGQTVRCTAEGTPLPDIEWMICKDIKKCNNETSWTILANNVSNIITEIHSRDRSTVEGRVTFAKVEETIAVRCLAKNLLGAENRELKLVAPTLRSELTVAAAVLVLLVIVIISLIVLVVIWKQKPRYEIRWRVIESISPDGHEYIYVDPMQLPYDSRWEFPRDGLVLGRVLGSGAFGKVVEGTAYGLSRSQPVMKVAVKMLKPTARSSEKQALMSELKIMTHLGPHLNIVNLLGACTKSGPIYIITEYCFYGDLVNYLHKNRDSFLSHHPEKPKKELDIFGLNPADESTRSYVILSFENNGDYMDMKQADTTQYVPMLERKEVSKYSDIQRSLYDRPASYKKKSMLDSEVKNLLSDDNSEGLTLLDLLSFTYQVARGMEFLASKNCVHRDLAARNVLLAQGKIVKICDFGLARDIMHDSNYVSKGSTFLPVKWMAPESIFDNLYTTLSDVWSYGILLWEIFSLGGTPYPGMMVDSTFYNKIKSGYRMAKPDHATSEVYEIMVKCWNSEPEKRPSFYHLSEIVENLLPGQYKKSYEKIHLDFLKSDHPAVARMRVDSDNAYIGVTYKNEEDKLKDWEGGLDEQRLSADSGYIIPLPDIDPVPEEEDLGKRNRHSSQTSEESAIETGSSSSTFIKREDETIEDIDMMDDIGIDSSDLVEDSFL
Protocol: as §2, §3

PDGF-β receptor [4] = target: T3, PDGF-β receptor (Sus scrofa, UniProt A0A8W4FFG6); experiment: Autophosphorylation and dimerization of partially purified PDGF-β receptor; format: biochemical, porcine; settings: nearly complete for 16T, complete for 16; about 100 ng receptor, 100 ng PDGF-BB, 40 ul
T3 construct: from Triton X-100 solubilized porcine uterus membranes and purified up to the Mono-Q chromatography step; from tissue; host or cells: porcine uterus membranes
T3 sequence (A0A8W4FFG6 32-1102): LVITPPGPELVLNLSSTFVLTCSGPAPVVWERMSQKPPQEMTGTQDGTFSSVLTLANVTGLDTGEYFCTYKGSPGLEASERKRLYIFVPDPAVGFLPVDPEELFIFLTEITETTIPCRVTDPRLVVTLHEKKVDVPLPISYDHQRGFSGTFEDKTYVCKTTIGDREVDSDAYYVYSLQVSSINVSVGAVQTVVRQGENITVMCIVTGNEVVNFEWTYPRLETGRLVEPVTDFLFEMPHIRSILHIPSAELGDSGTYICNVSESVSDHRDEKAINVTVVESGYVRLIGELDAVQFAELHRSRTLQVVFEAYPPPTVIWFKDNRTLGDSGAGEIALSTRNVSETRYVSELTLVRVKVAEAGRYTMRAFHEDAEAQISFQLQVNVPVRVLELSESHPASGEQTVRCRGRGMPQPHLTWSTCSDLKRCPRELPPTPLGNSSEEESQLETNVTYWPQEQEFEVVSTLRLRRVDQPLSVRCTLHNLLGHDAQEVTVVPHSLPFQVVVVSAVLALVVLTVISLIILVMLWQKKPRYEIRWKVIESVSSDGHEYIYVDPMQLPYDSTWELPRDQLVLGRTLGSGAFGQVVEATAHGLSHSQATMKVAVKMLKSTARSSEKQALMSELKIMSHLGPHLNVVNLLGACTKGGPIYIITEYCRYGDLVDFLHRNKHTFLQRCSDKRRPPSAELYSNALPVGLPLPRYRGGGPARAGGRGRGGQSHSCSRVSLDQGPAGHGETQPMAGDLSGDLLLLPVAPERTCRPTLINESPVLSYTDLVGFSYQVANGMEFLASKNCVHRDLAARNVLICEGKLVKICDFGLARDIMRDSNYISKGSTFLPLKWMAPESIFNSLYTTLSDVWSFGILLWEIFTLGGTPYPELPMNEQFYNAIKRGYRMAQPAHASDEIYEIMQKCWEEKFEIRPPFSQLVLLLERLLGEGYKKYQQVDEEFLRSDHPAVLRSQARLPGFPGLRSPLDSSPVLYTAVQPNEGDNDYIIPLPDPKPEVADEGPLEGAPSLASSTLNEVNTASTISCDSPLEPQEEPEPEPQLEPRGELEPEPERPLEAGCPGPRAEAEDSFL
Protocol: A preparation of PDGF-β receptor, from Triton X-100 solubilized porcine uterus membranes and purified up to the Mono-Q chromatography step of Ronnstrand et al., J. Biol. Chem. 262: 2929-2932 (1987), was made, and the autophosphorylation assay described therein was carried out.
Approximately 100 ng of the receptor was incubated for 5 minutes at 0° C. with peptide 16T or peptide 20, at different concentrations. […] Four ul of 150 μM [^32 P]ATP (containing 5×10^6 cpm of radioactivity) was added, followed by an additional 10 minutes of incubation at 0° C. Incorporation of radioactivity was terminated by adding 5 μl of 15 mM unlabelled ATP and 5 μl of 40 mM phenylphosphate. Samples were cross linked by incubating with 0.5 mM DSS (12.5 mM, in dimethyl sulfoxide) for 30 minutes at room temperature. The cross linking reaction was blocked by adding 50 mM methylammonium chloride, 20 mM Hepes, pH 7.4.

EGF receptor [5] = target: T4, EGF receptor (Homo sapiens, UniProt P00533); experiment: EGF induced receptor dimerization and autophosphorylation in intact cells; format: cell-based; settings: EGF 300 ng/ml, intact fibroblasts
T4 construct: cultures of human foreskin fibroblast cell line AG1518; endogenous in cells; host or cells: human foreskin fibroblasts (AG1518)
T4 sequence (P00533 25-1210): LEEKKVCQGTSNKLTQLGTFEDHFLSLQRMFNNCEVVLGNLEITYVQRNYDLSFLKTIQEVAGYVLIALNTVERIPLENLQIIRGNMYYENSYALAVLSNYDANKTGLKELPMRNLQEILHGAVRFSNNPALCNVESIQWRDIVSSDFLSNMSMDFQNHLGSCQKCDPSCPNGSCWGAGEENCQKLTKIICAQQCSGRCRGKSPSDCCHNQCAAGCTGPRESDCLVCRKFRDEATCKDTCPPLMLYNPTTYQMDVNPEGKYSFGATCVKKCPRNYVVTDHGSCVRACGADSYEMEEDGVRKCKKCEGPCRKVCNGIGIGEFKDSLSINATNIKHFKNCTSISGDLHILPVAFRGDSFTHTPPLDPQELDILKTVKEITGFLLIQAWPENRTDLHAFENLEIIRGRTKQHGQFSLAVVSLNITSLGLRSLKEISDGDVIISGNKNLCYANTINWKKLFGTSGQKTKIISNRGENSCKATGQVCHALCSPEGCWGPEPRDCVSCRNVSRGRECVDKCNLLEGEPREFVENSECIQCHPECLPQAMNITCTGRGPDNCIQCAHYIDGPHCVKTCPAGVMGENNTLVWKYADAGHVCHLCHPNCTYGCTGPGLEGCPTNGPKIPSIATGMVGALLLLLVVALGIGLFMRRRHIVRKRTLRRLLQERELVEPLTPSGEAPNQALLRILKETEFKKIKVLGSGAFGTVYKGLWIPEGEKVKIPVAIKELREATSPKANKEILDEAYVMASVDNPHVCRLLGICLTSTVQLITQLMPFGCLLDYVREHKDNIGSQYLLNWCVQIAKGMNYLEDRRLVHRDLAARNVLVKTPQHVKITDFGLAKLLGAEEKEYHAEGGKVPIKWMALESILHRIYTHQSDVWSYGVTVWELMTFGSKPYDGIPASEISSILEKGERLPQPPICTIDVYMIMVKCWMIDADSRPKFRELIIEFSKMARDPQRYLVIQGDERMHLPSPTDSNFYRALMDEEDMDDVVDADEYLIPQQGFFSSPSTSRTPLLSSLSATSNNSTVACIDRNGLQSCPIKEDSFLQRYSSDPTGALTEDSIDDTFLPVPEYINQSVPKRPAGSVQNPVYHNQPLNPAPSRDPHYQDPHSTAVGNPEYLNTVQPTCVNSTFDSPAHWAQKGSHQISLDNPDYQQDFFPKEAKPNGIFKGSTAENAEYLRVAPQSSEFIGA
Protocol: as §1

PDGF-α or β receptors = experiment: PDGF receptor internalization and down regulation; format: cell-based, human; settings: four hours at 37° C.; surface receptors estimated with 125I-PDGF-BB
Protocol: As binding of PDGF to receptors leads to receptor internalization and down regulation, investigations were carried out to determine whether the interaction of PDGF and peptide […] led to the internalization and down regulation of receptors. To test this, confluent cells, as described supra, were washed once with binding buffer at 37° C., followed by incubation with different concentrations of synthetic peptide (0.5 ml of PBS containing 1 mg/ml BSA). Following this, the cells were incubated at 37° C. for four hours, followed by washing with 1 ml of ice cold buffer consisting of 20 mM Na-acetate, 150 mM NaCl, 0.2% BSA adjusted to pH 3.7 with acetic acid. The cells were then incubated for 10 minutes on ice in buffer, followed by two washings with 1 ml binding buffer, at pH 7.4. The number of PDGF receptors on the cell surface was estimated by incubation with ^125 I-PDGF-BB (~50,000cpm) in 0.5 ml binding buffer for 60 minutes on ice, followed by washing, lysis and determination of cell bound radioactivity.

EGF receptor [6] = target: T4, EGF receptor; experiment: Competition with 125I-EGF for binding to AG1518 fibroblasts
Protocol: as §2, §3

CC[C@H](C)[C@H](NC(=O)[C@H](CCC(=O)O)NC(=O)[C@H](Cc1c(-c2ccc(SC)cc2)[nH]c2ccccc12)NC(=O)[C@@H](NC(=O)[C@H](CC(C)C)NC(=O)[C@H](Cc1ccccc1)NC(=O)[C@H](CC(N)=O)NC(=O)[C@H](C)N)C(C)C)C(=O)N[C@H](C(=O)N[C@@H](CCCNC(=N)N)C(=O)N[C@@H](CCCCN)C(=O)N[C@@H](CCCCN)C(=O)N1CCC[C@H]1C(=O)O)C(C)C [*16T, Ala Asn Phe Leu Val Xaa Glu Ile Val Arg Lys Lys Pro] (H-ANFLV[X1]EIVRKKP-OH; N-terminus and C-terminus assumed)
Inhibition of 125I-PDGF-AA degradation (in words) [1]: most effective | Inhibition of 125I-PDGF-BB degradation (in words) ([1]; α receptors down regulated): most potent | Effect on ligand stimulated [3H]thymidine incorporation (in words) ([2]; PDGF-AA, PDGF-BB or EGF stimulation): did inhibit PDGF-AA and PDGF-BB induced mitogenicity, but also EGF induced mitogenicity | Effect on background [3H]thymidine incorporation (in words) ([2]; no ligand): lowered background incorporation of [^3 H] thymidine dramatically | [3H]thymidine incorporation, Control ([2]; peptide present, no ligand, mean of duplicates): 46 cpm | [3H]thymidine incorporation, EGF ([2]; peptide present, stimulated with EGF, mean of duplicates): 119 cpm | [3H]thymidine incorporation, PDGF-AA ([2]; peptide present, stimulated with PDGF-AA, mean of duplicates): 90 cpm | [3H]thymidine incorporation, PDGF-BB ([2]; peptide present, stimulated with PDGF-BB, mean of duplicates): 102 cpm | Inhibition of PDGF induced autophosphorylation and dimerization (PDGF receptors): about 55% | Receptor competing activity, PDGF-BB binding (in words) (PDGF-β receptor [3]): effective competitor; also recorded: far more efficient in competing with PDGF for receptor binding | Receptor competing activity, PDGF-AA binding (in words) (PDGF-α receptor; AG1518 cells): higher activity; also recorded: effective competitor | 50% competition for receptor binding (PDGF-α receptor; α receptor): Forty-four | Amount of peptide giving complete inhibition of dimerization and autophosphorylation (PDGF-β receptor [4]): 5 µg | Effect on EGF induced autophosphorylation and dimerization (in words) (EGF receptor [5]): no effect | Down regulation of PDGF receptors (in words) (PDGF-α or β receptors): did not downregulate | Competition for binding of 125I-EGF to the EGF receptor (in words) (EGF receptor [6]): none of peptides 16, 16T, 20 and 20T compete
